Laboratory results: patent US20240018102A1, “COMPOUNDS AND COMPOSITIONS FOR TREATING CONDITIONS ASSOCIATED WITH LPA RECEPTOR ACTIVITY” (Lhotse Bio, Inc., priority 2020, published 2024)
Each block holds one compound with its values, some of them ahead of it.

Target: T1, human LPA1 (Homo sapiens, UniProt Q92633)
T1 construct: expressed in transfected cells; host or cells: CHO-K1
Experiment: In vitro LPA1 calcium flux antagonist assay, Bioduro protocol
Assay type: cell-based
Conditions: CHO-K1 cells overexpressing human LPA1 and G15a; LPA challenge at EC80; calcium mobilization on FLIPR Tetra; read-out: IC50 (nM) in Assay B2
Protocol: In Vitro LPA1 Calcium Flux Antagonist Assay Bioduro Protocol
CHO-K1 cells overexpressing human LPA1 and G15a were seeded at a total volume of 20 uL (15000 cells/well) into Matrigel pre-coated 384-well plates (coming -3764) and incubated at 37° C. After overnight incubation, the cells were serum starved for 4 h. Assays were performed in dye loading buffer containing 1× Fluo-8 AM (AAT Bioquest, 21080) and 2.5 mM probenecid (Thermo Fisher, 36400) in HBSS/20 mM Hepes. After cell starvation, the medium was replaced with 20 uL of dye loading buffer and incubated at 37° C. for 30 min. Then 5 uL of 5× compound titrated in dye loading buffer was added to the cells and incubated for 30 min followed by LPA challenge at EC80. Calcium mobilization was measured on a FLIPR Tetra (MDS). For LPA EC80 determination, starved cells were incubated with 20 uL of dye loading buffer for 1 h, then 5 uL of 5×LPA titrated in dye loading buffer was added to the cells. Calcium signals induced by LPA was monitors on a FLIPR.
Percentage inhibition is calculated using the following formula:
% Inhibition=100%×(1−(mean RFU of test sample−mean RFU of DMSO)/(mean RFU of LPA control−mean RFU of DMSO)).

T1 sequence (Q92633 whole entry): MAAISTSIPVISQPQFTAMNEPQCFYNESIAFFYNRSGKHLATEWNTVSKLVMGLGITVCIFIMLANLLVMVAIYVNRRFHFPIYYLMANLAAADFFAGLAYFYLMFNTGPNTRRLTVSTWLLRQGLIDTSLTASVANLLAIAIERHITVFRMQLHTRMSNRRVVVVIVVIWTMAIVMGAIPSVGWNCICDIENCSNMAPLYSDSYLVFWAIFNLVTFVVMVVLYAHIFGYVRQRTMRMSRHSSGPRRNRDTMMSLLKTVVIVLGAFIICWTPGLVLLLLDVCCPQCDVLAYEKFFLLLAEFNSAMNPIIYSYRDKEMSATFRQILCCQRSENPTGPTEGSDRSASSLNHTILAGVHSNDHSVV

- IC50: 17.4 nM
SMILES: COc1cc([C@@H](O)[C@H](Cc2cc3cc(C(F)(F)F)cc(C(=O)O)n3n2)OC2CCCC2)cc(OC)c1C [Compound 250]

- IC50: 366 nM
SMILES: CCCc1sc(C[C@H](OC2CCCC2)[C@H](O)c2cc(OC)c(C)c(OC)c2)nc1[C@@H](C)C(=O)O [Compound 261]

- IC50: 13 nM
SMILES: COc1cc([C@@H](O)[C@H](Cc2cc3cc(C)cc(C(=O)O)n3n2)OC2CCCC2)cc(OC)c1C [Compound 218]

- IC50: 52 nM
SMILES: COc1cc([C@@H](O)[C@H](Cc2nc(C(C)C(=O)O)c(C3CC3)s2)OC2CCCC2)cc(OC)c1C (stereo partly drawn) [Compound 268]

- IC50: 1120 nM
SMILES: COc1c(C)ccc([C@@H](O)[C@H](Cn2cc3nccc(C(=O)O)c3n2)OC2CCCC2)c1C [Compound 192]

- IC50: 24.5 nM
SMILES: COc1cc([C@@H](O)[C@H](Cc2cc3cc(C)cc(C(=O)O)n3n2)OCC(C)C)cc(OC)c1C [Compound 252]

- IC50: 10.1 nM
SMILES: COc1cc([C@@H](O)[C@H](Cc2nc3c(C(=O)O)cc(F)cc3s2)OCC2CCCC2)cc(OC)c1C [Compound 263]

- IC50: 15 nM
SMILES: COc1cc([C@@H](O)[C@H](Cn2cc3nccc(C(=O)O)c3n2)OC2Cc3ccccc3C2)cc(OC)c1C [Compound 185]

- IC50: 91.8 nM
SMILES: COc1cc([C@@H](O)[C@H](Cn2cc3cc(C(N)=O)cc(C(=O)O)c3n2)OC2CCCC2)cc(OC)c1C [Compound 221]

- IC50: 99.4 nM
SMILES: COc1cc([C@@H](O)[C@H](Cc2nc(CC(=O)O)c(C(C)C)s2)OC2CCCC2)cc(OC)c1C [Compound 223]

- IC50: 7.18 nM
SMILES: COc1cc([C@@H](O)[C@H](Cc2nc3c(C(=O)O)cc(F)cc3s2)OC2CCCC2)cc(OC)c1C [Compound 266]

- IC50: 5.42 nM
SMILES: COc1cc([C@@H](O)[C@H](Cn2cc3c(F)ccc(C(=O)O)c3n2)OC2CCCC2)cc(OC)c1C [Compound 153]

- IC50: ≥ 10000 nM
SMILES: COc1cc([C@@H](O)[C@H](Cn2cc3cccc(C(=O)NS(C)(=O)=O)c3n2)OC2CCCC2)cc(OC)c1C [Compound 171]

- IC50: 4.01 nM
SMILES: CCc1cc(C(=O)O)c2nn(C[C@H](OC3CCCC3)[C@H](O)c3cc(OC)c(C)c(OC)c3)cc2c1 [Compound 172]

- IC50: 7810 nM
SMILES: COC(=O)Cc1nc(CC(OC2CCCC2)[C@H](O)c2cc(OC)c(C)c(OC)c2)sc1C(=O)O (stereo partly drawn) [Compound 210]

- IC50: 6.28 nM
SMILES: COc1cc([C@@H](O)[C@H](Cn2cc3cc(C)cc(C(=O)O)c3n2)OC2CCCC2)cc(OC)c1C [Compound 161]

- IC50: 150 nM
SMILES: COc1cc([C@@H](O)[C@H](Cc2cc3cccc(C(=O)O)n3n2)OC2CCCC2)cc(OC)c1C [Compound 169, 2-((2S,3R)-2-(cyclopentyloxy)-3-(3,5-dimethoxy-4-methylphenyl)-3-hydroxypropyl)pyrazolo[1,5-a]pyridine-7-carboxylic acid]

- IC50: 4.23 nM
SMILES: COc1cc([C@@H](O)[C@H](Cn2cc3cc(C(F)(F)F)cc(C(=O)O)c3n2)OC2CCCC2)cc(OC)c1C [Compound 163]

- IC50: 146 nM
SMILES: Cc1ccc([C@@H](O)[C@H](Cn2cc3cccc(C(=O)O)c3n2)OC2CCCC2)cc1OC(F)(F)F [Compound 150]

- IC50: 36.8 nM
SMILES: COc1cc([C@@H](O)[C@H](Cn2cc3cccc(C(=O)O)c3n2)OCC(C)C)cc(OC)c1C [Compound 146]

The next lines start with the compound.

SMILES: COc1cc([C@@H](O)[C@H](Cc2cn3cccc(C(=O)O)c3n2)OC2CCCC2)cc(OC)c1C [Compound 248]
- IC50: ≥ 10000 nM

SMILES: COc1cc([C@@H](O)[C@H](Cn2nnc3c(C(=O)O)cccc32)OC2CCCC2)cc(OC)c1C [Compound 213]
- IC50: ≥ 10000 nM

SMILES: CCCc1sc(C[C@H](OC2CCCC2)[C@H](O)c2cc(OC)c(C)c(OC)c2)nc1[C@H](C)C(=O)O [Compound 260]
- IC50: 28 nM

SMILES: COc1cc([C@@H](O)[C@H](Cn2nnc3cccc(C(=O)O)c32)OC2CCCC2)cc(OC)c1C (racemic) [Compound 209]
- IC50: 812 nM

SMILES: COc1cc([C@@H](O)[C@H](Cn2cc3nccc(C(=O)O)c3n2)OC2CCCC2)c(Cl)cc1C [Compound 201]
- IC50: 938 nM

SMILES: COc1cc([C@@H](O)[C@H](Cn2cc3cc(Cl)cc(C(=O)O)c3n2)OC2CCCC2)ccc1C(F)F [Compound 173]
- IC50: 6.09 nM

SMILES: CCc1cc(C(=O)O)c2nc(C[C@H](OC3CCCC3)[C@H](O)c3cc(OC)c(C)c(OC)c3)cn2c1 [Compound 230]
- IC50: 872 nM

SMILES: CCOc1cc(C(=O)O)c2nc(C[C@H](OC3CCCC3)[C@H](O)c3cc(OC)c(C)c(OC)c3)sc2c1 [Compound 275]
- IC50: 1.65 nM

SMILES: COc1cc(C(=O)O)c2nc(C[C@@H](OC3CCCC3)[C@H](O)c3cc(OC)c(C)c(OC)c3)sc2c1 [Compound 283]
- IC50: 1760 nM

SMILES: COc1cc([C@@H](O)[C@H](Cn2cc3nccc(C(=O)O)c3n2)OC2CCCC2)cc(OC)c1C1CC1 [Compound 205]
- IC50: 507 nM

SMILES: COc1cc([C@@H](O)[C@H](Cn2cc3cc(C#N)cc(C(=O)O)c3n2)OC2CCCC2)cc(OC)c1C [Compound 165]
- IC50: 6.28 nM

SMILES: COc1cc([C@@H](O)[C@H](Cn2cc3c(OC)ccc(C(=O)O)c3n2)OC2CCCC2)cc(OC)c1C [Compound 216]
- IC50: 9.61 nM

SMILES: COc1cc([C@@H](O)[C@H](Cn2cc3nccc(C(=O)O)c3n2)OC2CCCC2)cc(OC)c1Br [Compound 224]
- IC50: 327 nM

SMILES: CCOc1cc([C@@H](O)[C@H](Cc2nc3c(C(=O)O)cccc3s2)OC2CCCC2)cc(OCC)c1C#N [Compound 257, 2-((2S,3R)-3-(4-cyano-3,5-diethoxyphenyl)-2-(cyclopentyloxy)-3-hydroxypropyl) benzo [d]thiazole-4-carboxylic acid]
- IC50: 47.2 nM

SMILES: CCOc1cc([C@@H](O)[C@H](Cc2nc3c(C(=O)O)cccc3s2)OCC(C)C)ccc1C(C)=O [Compound 258]
- IC50: 449 nM

SMILES: COc1cc([C@@H](O)[C@H](Cn2cc3nc(C(N)=O)cc(C(=O)O)c3n2)OC2CCCC2)cc(OC)c1C [Compound 222]
- IC50: 43.4 nM

SMILES: COc1cc([C@@H](O)[C@H](Cc2nc3c(C(=O)O)cc(C(F)(F)F)cc3s2)OCC(C)C)cc(OC)c1C [Compound 253]
- IC50: 5.79 nM

SMILES: CCc1sc(C[C@H](OC2CCCC2)[C@H](O)c2cc(OC)c(C)c(OC)c2)nc1CC(=O)O [Compound 178]
- IC50: 73.8 nM

SMILES: COc1cc([C@@H](O)[C@H](Cn2cc3nccc(C(=O)O)c3n2)OC2CCCC2)c(C)cc1C [Compound 188]
- IC50: 447 nM

SMILES: COc1cc([C@@H](O)[C@H](Cn2cc3cc(C4CC4)cc(C(=O)O)c3n2)OC2CCCC2)cc(OC)c1C [Compound 166]
- IC50: 4.94 nM

SMILES: COc1cc([C@@H](O)[C@H](Cc2nc3c(C(=O)O)cc(C4CC4)cc3s2)OC2CCCC2)cc(OC)c1C [Compound 245]
- IC50: 2.51 nM

SMILES: COc1cc([C@@H](O)[C@H](Cn2cc3nccc(C(=O)O)c3n2)OC2CCCC2)c(F)cc1C [Compound 190]
- IC50: 1530 nM

SMILES: COc1cc([C@@H](O)[C@H](Cc2nc3c(C(=O)O)cc(OC)c(F)c3s2)OC2CCCC2)cc(OC)c1C [Compound 279]
- IC50: 2.71 nM

SMILES: CCc1cc(C(=O)O)n2nc(C[C@H](OC3CCCC3)[C@H](O)c3cc(OC)c(C)c(OC)c3)cc2c1 [Compound 251]
- IC50: 37.3 nM

SMILES: COc1cc([C@@H](O)[C@H](Cn2cc3cc(C#N)cc(C(=O)O)c3n2)OC2CCCC2)ccc1C(F)F [Compound 225]
- IC50: 29.3 nM

SMILES: COc1cc([C@@H](O)[C@H](Cc2nc3c(C(=O)O)cc(F)cc3s2)OCC(C)C)cc(OC)c1C [Compound 262]
- IC50: 15.8 nM

SMILES: COc1cc([C@@H](O)[C@H](Cn2cc3cccc(-c4nc(=O)o[nH]4)c3n2)OC2CCCC2)cc(OC)c1C [Compound 181]
- IC50: > 10000 nM

SMILES: CCCc1sc(C[C@H](OC2CCCC2)[C@H](O)c2cc(OC)c(C(C)=O)c(OC)c2)nc1C(C)C(=O)O (stereo partly drawn) [Compound 272]
- IC50: 71.6 nM

SMILES: COc1cc(C(=O)O)c2nn(C[C@H](OC3CCCC3)[C@H](O)c3cc(OC)c(C)c(OC)c3)cc2n1 [Compound 197]
- IC50: 23.8 nM

SMILES: COc1cc(C(=O)O)c2nc(C[C@H](OC3Cc4ccccc4C3)[C@H](O)c3cc(OC)c(C)c(OC)c3)sc2c1 [Compound 274]
- IC50: 3.71 nM

SMILES: COc1cc([C@@H](O)[C@H](Cn2cc3nccc(C(=O)O)c3n2)OC2CCCC2)cc(OC)c1C [Compound 160, 2-((2S,3R)-2-(cyclopentyloxy)-3-(3,5-dimethoxy-4-methylphenyl)-3-hydroxypropyl)-2H-pyrazolo[4,3-b]pyridine-7-carboxylic acid]
- IC50: 138 nM

SMILES: COc1cc([C@@H](O)[C@H](Cc2nc([C@@H](C)C(=O)O)c(C)s2)OC2CCCC2)cc(OC)c1C (single isomer, unassigned) [Compound 240]
- IC50: 885 nM

SMILES: COc1cc([C@@H](O)[C@H](Cn2cc3nccc(C(=O)O)c3n2)OC2CCCC2)ccc1C [Compound 191]
- IC50: 662 nM

SMILES: COc1cc([C@@H](O)[C@H](Cn2cc3cc(C#N)cc(C(=O)O)c3n2)OCC(C)C)cc(OC)c1C [Compound 232]
- IC50: 27.2 nM

SMILES: COc1cc([C@@H](O)[C@H](Cn2cc3cc(CNC(C)=O)cc(C(=O)O)c3n2)OC2CCCC2)cc(OC)c1C [Compound 220]
- IC50: 106 nM

SMILES: COc1cc([C@@H](O)[C@H](Cn2cc3c(C#N)ccc(C(=O)O)c3n2)OC2CCCC2)cc(OC)c1C [Compound 182]
- IC50: 79.2 nM

SMILES: COc1cc([C@@H](O)[C@H](Cn2cc3cc(C)nc(C(=O)O)c3n2)OC2CCCC2)cc(OC)c1C [Compound 195]
- IC50: 32.3 nM
